For experiment [1], the system named is LI6669 human liver cancer orthotopic transplantation tumor. Description: LI6669 human liver cancer orthotopic transplantation tumor model (PDX), survival. Format: in vivo, BALB/c nude mouse. The note with it: Group 2, 50 mg/kg QD p.o. for 28 days; solvent control […] days. The source says: LI6669 is a HuPrime® orthotopic transplantation model originated from a patient's liver cancer.
Tumor tissue was collected from a LI6669 tumor-bearing mouse, a HuPrime® orthotopic transplantation model of liver, and cut to tumor pieces with a diameter of 2-3 mm, which were inoculated into the upper left lobe of liver of a Balb/c nude mouse.
When the average tumor volume of the tumor-bearing mice reached about 50-150 mm^3, the mice were randomly grouped by weight according to Table 3 of “3. Design of Experiment”. The grouping day was set as Day 0, and the administration began on Day 1. […].
After tumor cell inoculation, route monitoring comprises the tumor growth and the effect of treatment on normal behaviors of animals, specially including the activity, food intake and water consumption, weight gain or loss, eyes, fur of experimental animals, and other abnormal conditions. The clinical symptoms observed during the experiments were all recorded in the original data. After drug administration, the mice were measured twice a week for their weights. Observation was made to record the mouse requiring euthanasia and the corresponding survival time.

The subject of experiment [2] is human non-small cell lung cancer cell line A549. Briefly: Killing effect on tumor cells, CellTiter-Fluor Cell Viability Assay. Conditions: 48 h, 2% fetal bovine serum medium. The format is cell-based. The protocol:
CellTiter™-Flour Cell Viability Assay Reagent kit was used to detect the killing effects of the EAEA+rLZ-8 mutant (SEQ ID NO: 14) and the […]+rLZ-8 mutant (SEQ ID NO: 15) on tumor cells (human non-small cell lung cancer cell line A549) in vitro. The recombinant protein was diluted with 2% fetal bovine serum culture medium to produce test solutions with concentrations of 100 μg/mL, 50 μg/mL, 25 μg/mL, 12.5 μg/mL, 6.25 μg/mL, 3.125 μg/mL, 1.5625 μg/mL, 0.78125 μg/mL, 0.390625 μg/mL, 0.1953125 μg/mL, and 0.09765625 μg/mL, total 11 concentrations.
The dilutions were added into a 96-well plate containing A549 cells with 100 μL/well. For each group of concentration, 3 parallel wells were set and marked. A cell control group (i.e., cells only) was set at 100 μL/well, with 6 parallel wells. The plates were cultured in a CO2 incubator at 5% CO2 and 37° C. for 48 h.
100 μL of prepared CellTiter™-Flour Cell Viability Assay Reagent (1 mLL Assay Buffer; 1 μl GF-AFC Substrate) was added into each well. The plates were shaken for mixing well, and incubated in a CO2 incubator at 5% CO2 and 37° C. for not less than 30 min. The fluorescence value was detected with a microplate reader at a wavelength of 400EX/505EM, and the IC50value was calculated.

Consider two molecules from US20240424071A1, “NOVEL MUTANT OF RECOMBINANT GANODERMA LUCIDUM IMMUNOMODULATORY PROTEIN AND USE THEREOF” (CHANGCHUN INTELLICROWN PHARMACEUTICAL CO., LTD., priority 2021, published 2024).

Where only a bound is given, the exact number is not on record here.

With `CNC(=O)c1cc(Oc2ccc(NC(=O)Nc3ccc(Cl)c(C(F)(F)F)c3)cc2)ccn1` [Sorafenib, reference compound], in experiment [1], the “Median Survival” value is greater than 28 days.

B1: EEAEAEAEPK+rLZ-8 mutant: recombinant protein: spacer peptide EEAEAEAEPK (SEQ ID NO: 9) linked to rLZ-8 mutant (SEQ ID NO: 13) (protein)
chain: EEAEAEAEPKMSDTALIFRLAWDVKKLSFDYTPNWGRGNPNNFIDTVTFPKVLTDKAYTYRVAVSGRNLGVKPSYAVESKGSQKVNFLEYNSGYGIADTNTIQVFVVDPDTNNDFIIAQWN
modifications: EEAEAEAEPK-rLZ-8 mutant (D70K)
For the molecule B1, the “IC50, killing effect on lung cancer cell line A549” value in experiment [2] was 1.91 µg/mL.
